Assay results taken from patent US6461997B1, “Triazole sulfones having herbicidal activity” (Monsanto Technology LLC, priority 1999, dated 2002).

What was measured:
[1] = test system: PANMI (wild proso millet); assay: Pre-emergence herbicidal activity, warm season; format: in vivo, Panicum miliaceum; conditions: GR80 = lowest tested rate (300, 100, 30, 10 g/ha) with 80% or greater inhibition; approx. 14 days after treating; 30/21° C.
Procedure, shortened: (§1)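 Seeds were sown in sterilized, fertilized topsoil, covered, and the soil surface was sprayed with compound in 50:50 acetone/water at 300, 100, 30 and 10 g/ha. Pots were held at 30/21 °C day/night (PANMI, DIGSA) or 18/13 °C (ALOMY, POLCO). GR80 came from percent inhibition versus untreated plants at about 14 days.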

SORVU (shattercane) = assay: Pre-emergence herbicidal activity, warm season; format: in vivo, Sorghum vulgare; conditions: GR80 = lowest tested rate (300, 100, 30, 10 g/ha) with 80% or greater inhibition; approx. 14 days after treating; 30/21° C.
Procedure, shortened: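 GR80 values derive from percent inhibition relative to untreated plants, read roughly 14 days after sowing and pre-emergence soil-surface treatment (compound in 50:50 acetone/water; rates typically 10, 30, 100, 300 g/ha). Warm-season weeds grew at 30/21° C day/night, cool-season ones at 18/13° C; an asterisk marks activity without reaching 80% at the highest rate.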

[2] = test system: GALAP (catchweed bedstraw); assay: Pre-emergence herbicidal activity, cool season; format: in vivo, Galium aparine; conditions: lowest tested rate with 80% or greater inhibition; rates 300, 100, 30, 10 g/ha; about 14 days
Procedure, shortened: (§2)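 Seeds sown in sterilised fertilised topsoil received surface-applied compound in 50:50 acetone/water, typically at 300, 100, 30 and 10 g/ha, then greenhouse-grown at 30/21° C (warm-season species) or 18/13° C (cool-season species). Percent inhibition versus untreated plants was scored at about 14 days, giving GR80; an asterisk marks activity short of 80% at the top rate.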

POLCO (wild buckwheat) = assay: Pre-emergence herbicidal activity, cool season; format: in vivo, Polygonum convolvulus; conditions: lowest tested rate with 80% or greater inhibition; rates 300, 100, 30, 10 g/ha; about 14 days
Procedure, shortened: as §1

SINAR (wild mustard) = assay: Pre-emergence herbicidal activity, cool season; format: in vivo, Sinapis arvensis; conditions: lowest tested rate with 80% or greater inhibition; rates 300, 100, 30, 10 g/ha; about 14 days
Procedure, shortened: as §2

[3] = test system: VERPE (creeping speedwell); assay: Pre-emergence herbicidal activity, cool season; format: in vivo, Veronica persicaria; conditions: lowest tested rate with 80% or greater inhibition; rates 300, 100, 30, 10 g/ha; about 14 days
Procedure, shortened: as §2

SASKR (russian thistle) = assay: Pre-emergence herbicidal activity, cool season; format: in vivo, Salsola kali; conditions: lowest tested rate with 80% or greater inhibition; rates 300, 100, 30, 10 g/ha; about 14 days
Procedure, shortened: as §2

STEME (common chickweed) = assay: Pre-emergence herbicidal activity, cool season; format: in vivo, Stellaria media; conditions: lowest tested rate with 80% or greater inhibition; rates 300, 100, 30, 10 g/ha; about 14 days
Procedure, shortened: as §2

[4] = test system: LAMPU (purple deadnettle); assay: Pre-emergence herbicidal activity, cool season; format: in vivo, Lamium purpureum; conditions: lowest tested rate with 80% or greater inhibition; rates 300, 100, 30, 10 g/ha; about 14 days
Procedure, shortened: as §2

ALOMY (blackgrass) = assay: Post-emergence herbicidal activity, cool season; format: in vivo, Alopecurus myosuroides; conditions: abraded plants sprayed at 300, 100, 30 and 10 g/ha; about 14 days after treatment
Method: (§3) In another set of tests, the post-emergence activity of compounds of this invention was evaluated on the cool season species listed above. The following procedure was used.
(§4) A pre-prepared topsoil mixture (described above) was placed in a pot and compacted to a depth of 1.0 to 1.25 cm from the top of the pot. Seeds of each of several monocotyledonous and dicotyledonous annual plant species were placed on top of the soil. The seeds were covered with a mixture of 50% topsoil and 50% Rediearth™ in sufficient quantity to level-fill the pots. The pots were then placed on a greenhouse bench and subirrigated as needed.
(§5) When plants growing from the seeds had emerged and reached a suitable growth stage for post-emergence treatment, typically 9 to 14 days after planting, above-ground parts of the plants were subjected to a pre-treatment involving abrasion to create greater opportunity for foliar uptake of subsequently applied compounds. Abrasion was performed using garnet 200w particles applied with a Sears Craftsman hand-held sandblaster operated at approximately 850 kPa (50 psig) pressure.
(§6) A known amount of each test compound dissolved or suspended in an appropriate organic solvent was diluted with a 50:50 mix of acetone and water and applied to the plants by spraying with a standard spray nozzle in a spray volume of […] at a spray pressure of 511 kPa (30 psig). Only the compounds of Examples 1, 8-15 and 17-22 were included in post-emergence tests. Application rates for these compounds were 300, 100, 30 and 10 g/ha. Control plants were abraded but not sprayed.
(§7) After treatment the plants were placed in a greenhouse with an 18/13° C. day/night temperature regime and were subsequently watered as needed for growth. Approximately 14 days after treatment, the plants were observed and herbicidal efficacy recorded as percent inhibition by comparison with control plants. GR80 values were assigned for each compound as described above for the pre-emergence tests.

SETVI (green foxtail) = assay: Post-emergence herbicidal activity, cool season; format: in vivo, Setaria viridis; conditions: abraded plants sprayed at 300, 100, 30 and 10 g/ha; about 14 days after treatment
Method: as §3, §4, §5, §6, §7

LOLMG (annual ryegrass) = assay: Post-emergence herbicidal activity, cool season; format: in vivo, Lolium multiflorum; conditions: abraded plants sprayed at 300, 100, 30 and 10 g/ha; about 14 days after treatment
Method: as §3, §4, §5, §6, §7

BROTE (downy brome) = assay: Post-emergence herbicidal activity, cool season; format: in vivo, Bromus tectorum; conditions: abraded plants sprayed at 300, 100, 30 and 10 g/ha; about 14 days after treatment
Method: as §3, §4, §5, §6, §7

AVEFA (wild oat) = assay: Post-emergence herbicidal activity, cool season; format: in vivo, Avena fatua; conditions: abraded plants sprayed at 300, 100, 30 and 10 g/ha; about 14 days after treatment
Method: as §3, §4, §5, §6, §7

[5] = test system: AEGCY (jointed goatgrass); assay: Post-emergence herbicidal activity, cool season; format: in vivo, Aegilops cylindrica; conditions: abraded plants sprayed at 300, 100, 30 and 10 g/ha; about 14 days after treatment
Method: as §3, §4, §5, §6, §7

[6] = test system: AGSST (creeping bentgrass); assay: Post-emergence herbicidal activity, cool season; format: in vivo, Agrostis stolonifera; conditions: abraded plants sprayed at 300, 100, 30 and 10 g/ha; about 14 days after treatment
Method: as §3, §4, §5, §6, §7

[7] = test system: AGRRE (quackgrass (seedling)); assay: Post-emergence herbicidal activity, cool season; format: in vivo, Elymus repens; conditions: abraded plants sprayed at 300, 100, 30 and 10 g/ha; about 14 days after treatment
Method: as §3, §4, §5, §6, §7

## CCN(CC)C(=O)n1cnc(S(=O)(=O)C(F)(F)SCCOC(C)=O)n1 [Example 21]
[1]
  Pre-emergence activity (GR80) PANMI: * (activity observed, at least at highest rate, but <80% inhibition)
SORVU (shattercane)
  Pre-emergence activity (GR80) SORVU: * (activity observed, at least at highest rate, but <80% inhibition)
[2]
  Pre-emergence activity GR80, GALAP: 300 g/ha
POLCO (wild buckwheat)
  Pre-emergence activity GR80, POLCO: [empty]
SINAR (wild mustard)
  Pre-emergence activity GR80, SINAR: [empty]
[3]
  Pre-emergence activity GR80, VERPE: 300 g/ha
SASKR (russian thistle)
  Pre-emergence activity GR80, SASKR: [empty]
STEME (common chickweed)
  Pre-emergence activity GR80, STEME: [empty]
[4]
  Pre-emergence activity GR80, LAMPU: 300 g/ha
ALOMY (blackgrass)
  Post-emergence activity GR80, ALOMY: [empty]
SETVI (green foxtail)
  Post-emergence activity GR80, SETVI: [empty]
LOLMG (annual ryegrass)
  Post-emergence activity GR80, LOLMG: [empty]
BROTE (downy brome)
  Post-emergence activity GR80, BROTE: [empty]
AVEFA (wild oat)
  Post-emergence activity GR80, AVEFA: [empty]
[5]
  Post-emergence activity GR80, AEGCY: [empty]
[6]
  Post-emergence activity GR80, AGSST: [empty]
[7]
  Post-emergence activity GR80, AGRRE: [empty]
